# Source: patent publication US20170165286A1, “COMPOSITIONS AND METHODS FOR TREATING DIABETES AND LIVER DISEASES” (Cempra Pharmaceuticals, Inc., priority 2014, published 2017)
# “Also recorded” adds a separate entry of the source.
# What was measured:
# [1] = system: STAM mice; test: STAM model: whole blood and plasma biochemistry; assay type: in vivo; conditions: for Whole Blood Glucose Levels: non-fasting, 5-9 wks
# Experimental: (§1) NASH-HCC (STAM™) Model. C57BL/6 (15-day-pregnant female) mice are obtained from Charles River Laboratories Japan (Kanagawa, Japan). Male pups are selected for the study. NASH is induced in male mice by a single subcutaneous injection of 200 μg streptozotocin (STZ, Sigma-Aldrich, USA) solution 2 days after birth, followed by feeding a HFD (57 kcal % fat, cat#: HFD32, CLEA Japan, Japan) beginning at 4 weeks of age. At 5 weeks of age, mice are divided into a control group and one or more treated group (generally 8 mice per group). Animals are sacrificed at 9 weeks of age, and biochemical, histological, and gene expression analyses are performed.
# (§2) During weeks 5-9 (starting at day 35±2), test compound is administered (generally orally) at various doses diluted to 10 mL/kg and according to various dosing protocols to treatment groups (8 mice each) while a second group (8 mice) is administered vehicle only. Animals are sacrificed at 9 weeks.
# Measurement of whole blood and plasma biochemistry. Non-fasting blood glucose was measured in whole blood using LIFE CHECK (EIDIA, Japan). For plasma biochemistry, blood was collected in polypropylene tubes with anticoagulant (Novo-Heparin, Mochida Pharmaceutical, Japan) and centrifuged at 1,000×g for 15 minutes at 4° C. The supernatant was collected and stored at −80° C. until use. Plasma ALT levels were measured by FUJI DRI-CHEM 7000 (Fujifilm, Japan). Plasma insulin, MIF and IL-22 were quantified by Ultra Sensitive Mouse Insulin ELISA Kit (Morinaga Institute of Biological science, Japan), Mouse Macrophage Migration Inhibitory Factor (MIF) ELISA (Kamiya Biomedical, USA), Quantikine ELISA Mouse/Rat IL-22 Immunoassay kit (R&D Systems, USA), respectively.
# (§3) Illustrative dose response test groups. Group 1-Normal. Eight normal mice are fed with a normal diet ad libitum without any treatment until 9 weeks of age. Group 2-Vehicle. Eight NASH mice are orally administered vehicle (0.5% w/v methylcellulose+0.2% Tween®80) in a volume of 10 mL/kg twice daily from 5 to 9 week of age. Group 3-solithromycin 5 mg/kg. Eight NASH mice are orally administered vehicle supplemented with solithromycin at a dose of 5 mg/kg in the morning and the vehicle in the evening (5 mg/kg/day) from 5 to 9 weeks of age. Group 4-solithromycin 10 mg/kg. Eight NASH mice are orally administered vehicle supplemented with solithromycin at a dose of 10 mg/kg twice daily (20 mg/kg/day) from 5 to 9 weeks of age. Group 5-solithromycin 25 mg/kg. Eight NASH mice are orally administered vehicle supplemented with solithromycin at a dose of 25 mg/kg twice daily (50 mg/kg/day) from 5 to 9 weeks of age. Group 6-solithromycin 50 mg/kg. Eight NASH mice are orally administered vehicle supplemented with solithromycin at a dose of 50 mg/kg once daily (50 mg/kg/day) from 5 to 9 weeks of age.
# [2] = system: STAM mice; test: STAM model: liver triglyceride content; assay type: in vivo
# Experimental: as §1, §2
# Measurement of liver biochemistry—liver triglyceride content. Liver total lipid-extracts are obtained by Folch's method (Folch J. et al., J. Biol. Chem., 1957; 226:497). Liver samples are homogenized in chloroform-methanol (2:1, v/v) and incubated overnight at room temperature. After washing with chloroform-methanol-water (8:4:3, v/v/v), the extracts are evaporated to dryness, and dissolved in isopropanol. Liver triglyceride (TG) and cholesterol contents were measured by Triglyceride E-test and Cholesterol E-test (Wako Pure Chemical Industries, Japan), respectively. Extracts are diluted 2-fold in isopropanol when the triglyceride content exceeds the detection limit.
# as §3
# [3] = Phase 1 study in subjects with hepatic impairment: safety; assay type: in vivo, humans; conditions: for Number of subjects reporting treatment-emergent AEs: 800 mg Day 1, 400 mg Days 2-5
# Experimental: Safety of solithromycin in humans with hepatic insufficiency.
# Safety and Pharmacokinetics of solithromycin in Subjects with Hepatic Impairment. The safety, pharmacokinetics (PK), and protein binding of solithromycin was evaluated in subjects with mild, moderate, and severe hepatic impairment compared to healthy subjects with normal hepatic function (matched for age, weight, and gender). The evaluation was performed in a Phase 1, open-label, multiple-dose study in subjects with mild (Child-Pugh Class A), moderate (Child-Pugh Class B), and severe (Child-Pugh Class C) hepatic impairment and healthy matched control subjects with normal hepatic function. All subjects received a once-daily dose of 800 mg on Day 1 followed by 400 mg on Days 2 through 5.
# 33 subjects were enrolled: 8 with mild impairment (mean Child-Pugh score 5.625), 8 with moderate impairment (mean Child-Pugh score 7.375), 8 with severe impairment (mean Child-Pugh score 10.625), and 9 healthy controls with normal hepatic function. One subject, a healthy control, discontinued study drug after 2 doses due to a rash; all other subjects (n=32) completed the study. Overall, the number of subjects reporting treatment-emergent AEs in the hepatic impaired cohorts (mild n=1, moderate n=4, severe n=4) was no greater than in the control group (n=4).
smiles,measurement,setting,value
CC[C@H]1OC(=O)[C@@](C)(F)C(=O)[C@H](C)[C@@H](O[C@@H]2O[C@H](C)C[C@H](N(C)C)[C@H]2O)[C@](C)(OC)C[C@@H](C)C(=O)[C@H](C)[C@H]2N(CCCCn3cc(-c4cccc(N)c4)nn3)C(=O)O[C@]12C [solithromycin],Plasma ALT,[1]; 5 mg/kg q.d.,52 ± 78 U/L
same,Plasma IL-22,[1]; 5 mg/kg q.d.,31.8 ± 1.6 pg/mL
same,Plasma insulin,[1]; 5 mg/kg q.d.,0.25 ± 0.10 ng/mL
same,Plasma MIF,"[1]; 5 mg/kg q.d., 5 mg/kg",no statistically significant differences
same,Plasma MIF,"[1]; 5 mg/kg q.d., listed as SOLI, 5 mg/kg",4665 ± 2131 pg/mL
same,Plasma ALT,[1]; 10 mg/kg b.i.d.,31 ± 19 U/L
same,Plasma IL-22,[1]; 10 mg/kg b.i.d.,33.0 ± 5.0 pg/mL
same,Plasma insulin,[1]; 10 mg/kg b.i.d.,0.41 ± 0.35 ng/mL
same,Plasma MIF,"[1]; 10 mg/kg b.i.d., 10 mg/kg",no statistically significant differences
same,Plasma MIF,"[1]; 10 mg/kg b.i.d., listed as SOLI, 10 mg/kg",4852 ± 1720 pg/mL
same,Plasma ALT,[1]; 25 mg/kg b.i.d.,34 ± 14 U/L
same,Plasma IL-22,[1]; 25 mg/kg b.i.d.,33.8 ± 7.2 pg/mL
same,Plasma insulin,[1]; 25 mg/kg b.i.d.,0.41 ± 0.22 ng/mL
same,Plasma MIF,"[1]; 25 mg/kg b.i.d., 25 mg/kg",significantly increased
same,Plasma MIF,"[1]; 25 mg/kg b.i.d., listed as SOLI, 25 mg/kg",11748 ± 7633 pg/mL
same,Plasma IL-22 levels compared to vehicle group,[1]; any doses,no statistically significant differences
same,Plasma insulin levels compared to vehicle group,[1]; any doses,no statistically significant differences; also recorded: not significantly affected
same,Plasma ALT levels compared to vehicle group,[1]; any doses (Groups 3-6),no significant differences
same,Whole Blood Glucose Levels,"[1]; 5 mg/kg q.d. oral, 5 mg/kg",no statistically significant differences
same,Whole Blood Glucose Levels,"[1]; 5 mg/kg q.d. oral, listed as SOLI, 5 mg/kg",726 ± 101 mg/dL
same,Whole Blood Glucose Levels,"[1]; 5 mg/kg q.d. oral, listed as Solithromycin, 5 mg/kg",726 ± 101 mg/dL
same,Whole Blood Glucose Levels,"[1]; 10 mg/kg b.i.d. oral, 10 mg/kg",no statistically significant differences
same,Whole Blood Glucose Levels,"[1]; 10 mg/kg b.i.d. oral, listed as SOLI, 10 mg/kg",713 ± 172 mg/dL
same,Whole Blood Glucose Levels,"[1]; 10 mg/kg b.i.d. oral, listed as Solithromycin, 10 mg/kg",713 ± 172 mg/dL
same,Whole Blood Glucose Levels,"[1]; 25 mg/kg b.i.d. oral, 25 mg/kg",Statistically significant blood glucose decrease
same,Whole Blood Glucose Levels,"[1]; 25 mg/kg b.i.d. oral, listed as SOLI, 25 mg/kg",497 ± 259 mg/dL
same,Whole Blood Glucose Levels,"[1]; 25 mg/kg b.i.d. oral, listed as Solithromycin, 25 mg/kg",497 ± 259 mg/dL
same,Whole Blood Glucose Levels,"[1]; 50 mg/kg q.d. oral, 50 mg/kg",Statistically significant blood glucose decrease
same,Whole Blood Glucose Levels,"[1]; 50 mg/kg q.d. oral, listed as Solithromycin, 50 mg/kg",380 ± 170 mg/dL
same,Liver triglyceride,[2]; 5 mg/kg q.d.,127.7 ± 62.3 mg/g liver
same,Liver triglyceride,[2]; 10 mg/kg b.i.d.,161.8 ± 44.5 mg/g liver
same,Liver triglyceride,[2]; 25 mg/kg b.i.d.,100.8 ± 35.3 mg/g liver
same,Liver triglyceride content compared to vehicle group,[2]; any doses (Groups 3-6),no statistically significant differences
same,Most commonly reported AEs,[3]; all cohorts,mild diarrhea and mild headache
same,Mean changes from baseline in liver function tests on Day 8,"[3]; any cohort, after 5 days of administration",not clinically significant
same,ALT mean (±SD) change from baseline on Day 8,[3]; control cohort,2.6±4.47 IU/L
same,AST mean (±SD) change from baseline on Day 8,[3]; control cohort,−0.6±2.92 IU/L
same,Direct bilirubin mean (±SD) change from baseline on Day 8,[3]; control cohort,0.00 ± 0.053 mg/dL
same,Number of subjects reporting treatment-emergent AEs,[3]; healthy control group (9 enrolled),4
same,Safety compared to healthy controls,"[3]; humans with hepatic impairment, same doses",no significant differences in safety
same,Tolerability,"[3]; humans with mild, moderate and severe hepatic impairment, doses as high as 800 mg",well tolerated
same,ALT mean (±SD) change from baseline on Day 8,[3]; mild hepatic impairment,4.0±8.00 IU/L
same,AST mean (±SD) change from baseline on Day 8,[3]; mild hepatic impairment,0.4±5.93 IU/L
same,Direct bilirubin mean (±SD) change from baseline on Day 8,[3]; mild hepatic impairment,0.00 ± 0.076 mg/dL
same,Number of subjects reporting treatment-emergent AEs,[3]; mild hepatic impairment (8 enrolled),1
same,ALT mean (±SD) change from baseline on Day 8,[3]; moderate hepatic impairment,7.8±6.92 IU/L
same,AST mean (±SD) change from baseline on Day 8,[3]; moderate hepatic impairment,0.1±10.56 IU/L
same,Direct bilirubin mean (±SD) change from baseline on Day 8,[3]; moderate hepatic impairment,0.03 ± 0.046 mg/dL
same,Number of subjects reporting treatment-emergent AEs,[3]; moderate hepatic impairment (8 enrolled),4
same,ALT mean (±SD) change from baseline on Day 8,[3]; severe hepatic impairment,6.3±14.61 IU/L
same,AST mean (±SD) change from baseline on Day 8,[3]; severe hepatic impairment,5.8±22.44 IU/L
same,Direct bilirubin mean (±SD) change from baseline on Day 8,[3]; severe hepatic impairment,0.04 ± 0.207 mg/dL
same,Number of subjects reporting treatment-emergent AEs,[3]; severe hepatic impairment (8 enrolled),4
